From ChEMBL document CHEMBL3991601, “The target landscape of clinical kinase drugs” (Science, 2017) come the findings set out here.

Calls of active or inactive are those of the source. For most assays here, no stated cut-off is given here; in the data, actives have a measured Kd and inactives only a lower limit. Some results are limits rather than exact numbers.

Test [1] addresses MAP kinase-activated protein kinase 2 (Homo sapiens, UniProt P49137).
Test [2] concerns the target DnaJ homolog subfamily A member 1 (Homo sapiens, UniProt P31689).
The target of test [3] is RAC-alpha serine/threonine-protein kinase (Homo sapiens, UniProt P31749).
For test [4], the target named is Ribosomal protein S6 kinase alpha-6 (Homo sapiens, UniProt Q9UK32).
Another test has as its target T1, Ephrin type-B receptor 6 (Homo sapiens, UniProt O15197).
T1 sequence (O15197 whole entry): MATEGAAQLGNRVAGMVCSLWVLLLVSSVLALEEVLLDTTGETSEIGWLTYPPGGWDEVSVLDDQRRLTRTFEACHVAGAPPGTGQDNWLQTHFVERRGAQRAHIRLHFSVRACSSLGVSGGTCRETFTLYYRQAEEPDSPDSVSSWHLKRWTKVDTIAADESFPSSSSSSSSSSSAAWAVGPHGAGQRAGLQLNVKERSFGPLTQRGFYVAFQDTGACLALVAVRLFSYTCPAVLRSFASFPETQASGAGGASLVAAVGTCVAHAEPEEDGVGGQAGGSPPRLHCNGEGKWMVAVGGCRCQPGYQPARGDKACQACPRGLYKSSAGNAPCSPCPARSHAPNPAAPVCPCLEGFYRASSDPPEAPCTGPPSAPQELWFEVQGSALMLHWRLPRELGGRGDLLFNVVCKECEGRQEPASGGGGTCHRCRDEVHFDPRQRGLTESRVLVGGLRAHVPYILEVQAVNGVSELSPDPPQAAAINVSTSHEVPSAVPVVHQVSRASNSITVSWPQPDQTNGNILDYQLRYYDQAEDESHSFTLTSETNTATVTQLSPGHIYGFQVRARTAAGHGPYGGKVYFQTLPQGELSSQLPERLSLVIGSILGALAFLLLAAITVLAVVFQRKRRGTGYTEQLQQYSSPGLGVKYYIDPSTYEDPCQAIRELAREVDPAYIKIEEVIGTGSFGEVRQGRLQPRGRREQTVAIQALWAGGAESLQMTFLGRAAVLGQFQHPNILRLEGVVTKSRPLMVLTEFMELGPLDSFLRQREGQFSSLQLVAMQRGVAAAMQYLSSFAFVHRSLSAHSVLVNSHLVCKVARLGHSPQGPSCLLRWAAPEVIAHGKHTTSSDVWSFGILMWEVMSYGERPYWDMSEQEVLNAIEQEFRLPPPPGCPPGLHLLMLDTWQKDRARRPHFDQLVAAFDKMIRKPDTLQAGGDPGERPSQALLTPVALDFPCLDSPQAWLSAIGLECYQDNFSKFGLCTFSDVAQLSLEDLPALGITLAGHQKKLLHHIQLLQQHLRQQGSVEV

The target of test [5] is T2, Dual specificity mitogen-activated protein kinase kinase 3 (Homo sapiens, UniProt P46734).
T2 sequence (P46734 whole entry): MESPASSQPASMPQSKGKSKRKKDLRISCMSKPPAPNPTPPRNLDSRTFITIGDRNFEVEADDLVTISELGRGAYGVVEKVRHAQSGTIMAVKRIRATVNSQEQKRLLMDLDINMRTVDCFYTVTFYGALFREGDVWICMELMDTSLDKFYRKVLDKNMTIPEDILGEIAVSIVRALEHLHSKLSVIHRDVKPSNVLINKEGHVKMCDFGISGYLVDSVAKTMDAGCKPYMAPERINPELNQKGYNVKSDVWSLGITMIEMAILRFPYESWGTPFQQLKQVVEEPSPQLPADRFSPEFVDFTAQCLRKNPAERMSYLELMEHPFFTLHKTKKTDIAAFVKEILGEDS

The target in test [6] is Dual specificity mitogen-activated protein kinase kinase 2 (Homo sapiens, UniProt P36507).
Chain of Dual specificity mitogen-activated protein kinase kinase 2 (P36507 whole entry): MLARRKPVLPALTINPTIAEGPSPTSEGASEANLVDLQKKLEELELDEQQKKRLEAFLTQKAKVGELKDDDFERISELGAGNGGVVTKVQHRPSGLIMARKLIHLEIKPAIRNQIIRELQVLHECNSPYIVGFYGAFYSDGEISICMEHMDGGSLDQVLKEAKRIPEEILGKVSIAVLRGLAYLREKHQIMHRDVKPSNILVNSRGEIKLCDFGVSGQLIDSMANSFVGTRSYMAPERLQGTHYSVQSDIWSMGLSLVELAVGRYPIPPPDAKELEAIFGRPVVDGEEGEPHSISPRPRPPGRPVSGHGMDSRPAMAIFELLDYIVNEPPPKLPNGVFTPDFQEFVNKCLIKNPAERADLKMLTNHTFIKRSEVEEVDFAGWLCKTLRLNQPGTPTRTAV
Test [7] deals with Serine/threonine-protein kinase 10 (Homo sapiens, UniProt O94804).
Chain of Serine/threonine-protein kinase 10 (O94804 whole entry): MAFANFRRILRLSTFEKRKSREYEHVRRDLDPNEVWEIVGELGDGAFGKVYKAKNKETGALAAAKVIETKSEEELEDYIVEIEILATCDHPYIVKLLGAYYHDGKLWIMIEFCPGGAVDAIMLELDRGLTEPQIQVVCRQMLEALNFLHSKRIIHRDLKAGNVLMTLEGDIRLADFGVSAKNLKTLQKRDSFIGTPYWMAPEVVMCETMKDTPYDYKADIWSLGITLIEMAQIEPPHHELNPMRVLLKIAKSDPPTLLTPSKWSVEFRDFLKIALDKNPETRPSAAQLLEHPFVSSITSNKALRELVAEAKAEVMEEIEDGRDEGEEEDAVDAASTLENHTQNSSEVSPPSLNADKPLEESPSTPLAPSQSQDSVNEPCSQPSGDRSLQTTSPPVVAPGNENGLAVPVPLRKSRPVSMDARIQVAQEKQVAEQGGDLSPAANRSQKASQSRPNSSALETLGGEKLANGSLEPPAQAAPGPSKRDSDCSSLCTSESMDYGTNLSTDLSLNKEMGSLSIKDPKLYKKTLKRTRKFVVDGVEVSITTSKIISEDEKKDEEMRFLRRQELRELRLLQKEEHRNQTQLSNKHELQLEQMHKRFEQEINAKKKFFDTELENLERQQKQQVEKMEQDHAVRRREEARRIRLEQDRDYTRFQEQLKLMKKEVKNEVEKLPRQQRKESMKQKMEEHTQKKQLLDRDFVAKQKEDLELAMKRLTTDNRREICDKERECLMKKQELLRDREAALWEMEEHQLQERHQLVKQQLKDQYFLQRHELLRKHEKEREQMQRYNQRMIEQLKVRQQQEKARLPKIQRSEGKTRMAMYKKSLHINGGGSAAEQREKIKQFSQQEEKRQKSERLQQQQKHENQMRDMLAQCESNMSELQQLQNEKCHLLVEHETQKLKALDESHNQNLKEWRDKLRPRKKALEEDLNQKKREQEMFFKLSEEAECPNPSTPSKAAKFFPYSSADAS
Test [8] addresses T3, Membrane-associated tyrosine- and threonine-specific cdc2-inhibitory kinase (Homo sapiens, UniProt Q99640).
T3 sequence (Q99640 whole entry): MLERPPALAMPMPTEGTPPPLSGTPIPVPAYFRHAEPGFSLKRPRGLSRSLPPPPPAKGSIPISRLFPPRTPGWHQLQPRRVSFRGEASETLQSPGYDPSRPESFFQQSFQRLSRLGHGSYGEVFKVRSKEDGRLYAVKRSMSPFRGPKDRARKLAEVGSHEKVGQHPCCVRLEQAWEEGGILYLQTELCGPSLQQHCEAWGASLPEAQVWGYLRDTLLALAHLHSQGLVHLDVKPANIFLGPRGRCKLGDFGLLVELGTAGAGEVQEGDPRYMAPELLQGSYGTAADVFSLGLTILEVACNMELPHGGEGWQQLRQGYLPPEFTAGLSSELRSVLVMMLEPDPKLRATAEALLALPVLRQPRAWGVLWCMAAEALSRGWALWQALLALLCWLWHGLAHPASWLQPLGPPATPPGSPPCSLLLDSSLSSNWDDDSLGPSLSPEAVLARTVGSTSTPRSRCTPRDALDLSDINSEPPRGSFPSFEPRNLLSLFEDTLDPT

The target of test [9] is Atypical kinase COQ8A, mitochondrial (Homo sapiens, UniProt Q8NI60).
The next test addresses Ephrin type-A receptor 5 (Homo sapiens, UniProt P54756).
Test [10] has as its target BMP-2-inducible protein kinase (Homo sapiens, UniProt Q9NSY1).
Test [11] concerns the target Interleukin-1 receptor-associated kinase 1 (Homo sapiens, UniProt P51617).
The target of test [12] is Glycogen synthase kinase-3 alpha (Homo sapiens, UniProt P49840).
Chain of Glycogen synthase kinase-3 alpha (P49840 whole entry): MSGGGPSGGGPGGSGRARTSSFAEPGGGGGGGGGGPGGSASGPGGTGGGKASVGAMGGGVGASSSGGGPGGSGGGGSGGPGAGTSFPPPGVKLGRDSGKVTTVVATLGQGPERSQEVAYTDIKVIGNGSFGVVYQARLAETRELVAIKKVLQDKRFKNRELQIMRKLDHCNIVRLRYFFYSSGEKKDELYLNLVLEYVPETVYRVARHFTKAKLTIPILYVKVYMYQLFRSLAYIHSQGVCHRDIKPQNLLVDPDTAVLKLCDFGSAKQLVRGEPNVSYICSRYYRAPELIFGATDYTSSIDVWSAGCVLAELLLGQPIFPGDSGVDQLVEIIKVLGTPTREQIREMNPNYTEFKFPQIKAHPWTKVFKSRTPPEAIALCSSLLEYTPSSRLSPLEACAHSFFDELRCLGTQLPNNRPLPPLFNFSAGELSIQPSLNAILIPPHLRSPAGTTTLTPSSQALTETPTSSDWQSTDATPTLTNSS
In test [13] the target is Dual specificity protein kinase CLK1 (Homo sapiens, UniProt P49759).
Chain of Dual specificity protein kinase CLK1 (P49759 whole entry): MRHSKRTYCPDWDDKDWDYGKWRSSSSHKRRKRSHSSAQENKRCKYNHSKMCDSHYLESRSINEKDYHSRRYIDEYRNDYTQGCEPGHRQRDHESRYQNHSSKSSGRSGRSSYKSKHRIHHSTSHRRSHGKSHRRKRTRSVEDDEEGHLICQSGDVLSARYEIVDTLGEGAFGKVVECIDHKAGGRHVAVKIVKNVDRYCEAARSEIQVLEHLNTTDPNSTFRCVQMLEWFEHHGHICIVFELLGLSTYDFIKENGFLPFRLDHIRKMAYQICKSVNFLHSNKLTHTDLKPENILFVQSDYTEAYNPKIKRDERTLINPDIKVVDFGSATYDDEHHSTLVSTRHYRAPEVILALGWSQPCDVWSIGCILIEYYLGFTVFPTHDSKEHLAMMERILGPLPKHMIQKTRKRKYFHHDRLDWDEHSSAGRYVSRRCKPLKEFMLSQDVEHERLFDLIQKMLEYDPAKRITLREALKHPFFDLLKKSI

Chain of BMP-2-inducible protein kinase (Q9NSY1 whole entry): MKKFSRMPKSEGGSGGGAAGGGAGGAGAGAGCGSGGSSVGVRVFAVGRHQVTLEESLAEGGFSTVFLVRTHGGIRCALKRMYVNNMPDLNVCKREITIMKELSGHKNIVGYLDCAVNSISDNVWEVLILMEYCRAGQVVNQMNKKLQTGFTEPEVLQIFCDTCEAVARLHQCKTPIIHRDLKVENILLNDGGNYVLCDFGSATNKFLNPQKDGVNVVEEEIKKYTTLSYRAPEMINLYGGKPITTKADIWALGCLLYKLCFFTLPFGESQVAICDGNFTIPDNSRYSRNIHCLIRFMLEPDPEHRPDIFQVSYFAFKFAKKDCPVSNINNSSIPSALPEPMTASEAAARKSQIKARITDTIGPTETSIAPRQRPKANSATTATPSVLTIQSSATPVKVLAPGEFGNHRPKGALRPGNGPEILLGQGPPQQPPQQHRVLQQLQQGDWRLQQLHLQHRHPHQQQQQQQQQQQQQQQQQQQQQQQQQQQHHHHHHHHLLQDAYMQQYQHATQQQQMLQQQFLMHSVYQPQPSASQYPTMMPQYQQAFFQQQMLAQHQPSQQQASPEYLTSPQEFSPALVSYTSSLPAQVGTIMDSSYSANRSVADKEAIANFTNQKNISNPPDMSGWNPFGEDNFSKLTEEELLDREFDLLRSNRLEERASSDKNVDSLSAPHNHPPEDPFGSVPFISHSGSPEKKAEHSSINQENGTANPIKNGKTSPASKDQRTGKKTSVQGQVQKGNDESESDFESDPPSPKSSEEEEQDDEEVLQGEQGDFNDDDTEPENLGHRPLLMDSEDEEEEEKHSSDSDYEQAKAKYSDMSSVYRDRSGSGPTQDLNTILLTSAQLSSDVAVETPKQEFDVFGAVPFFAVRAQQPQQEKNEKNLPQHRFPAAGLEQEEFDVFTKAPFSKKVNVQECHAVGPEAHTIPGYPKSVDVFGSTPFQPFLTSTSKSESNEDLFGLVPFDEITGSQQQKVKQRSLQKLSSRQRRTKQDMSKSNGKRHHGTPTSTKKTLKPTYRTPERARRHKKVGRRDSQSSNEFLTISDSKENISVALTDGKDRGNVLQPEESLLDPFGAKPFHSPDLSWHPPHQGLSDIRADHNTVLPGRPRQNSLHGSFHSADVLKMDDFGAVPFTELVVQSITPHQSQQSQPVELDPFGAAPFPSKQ
Chain of Ephrin type-A receptor 5 (P54756 whole entry): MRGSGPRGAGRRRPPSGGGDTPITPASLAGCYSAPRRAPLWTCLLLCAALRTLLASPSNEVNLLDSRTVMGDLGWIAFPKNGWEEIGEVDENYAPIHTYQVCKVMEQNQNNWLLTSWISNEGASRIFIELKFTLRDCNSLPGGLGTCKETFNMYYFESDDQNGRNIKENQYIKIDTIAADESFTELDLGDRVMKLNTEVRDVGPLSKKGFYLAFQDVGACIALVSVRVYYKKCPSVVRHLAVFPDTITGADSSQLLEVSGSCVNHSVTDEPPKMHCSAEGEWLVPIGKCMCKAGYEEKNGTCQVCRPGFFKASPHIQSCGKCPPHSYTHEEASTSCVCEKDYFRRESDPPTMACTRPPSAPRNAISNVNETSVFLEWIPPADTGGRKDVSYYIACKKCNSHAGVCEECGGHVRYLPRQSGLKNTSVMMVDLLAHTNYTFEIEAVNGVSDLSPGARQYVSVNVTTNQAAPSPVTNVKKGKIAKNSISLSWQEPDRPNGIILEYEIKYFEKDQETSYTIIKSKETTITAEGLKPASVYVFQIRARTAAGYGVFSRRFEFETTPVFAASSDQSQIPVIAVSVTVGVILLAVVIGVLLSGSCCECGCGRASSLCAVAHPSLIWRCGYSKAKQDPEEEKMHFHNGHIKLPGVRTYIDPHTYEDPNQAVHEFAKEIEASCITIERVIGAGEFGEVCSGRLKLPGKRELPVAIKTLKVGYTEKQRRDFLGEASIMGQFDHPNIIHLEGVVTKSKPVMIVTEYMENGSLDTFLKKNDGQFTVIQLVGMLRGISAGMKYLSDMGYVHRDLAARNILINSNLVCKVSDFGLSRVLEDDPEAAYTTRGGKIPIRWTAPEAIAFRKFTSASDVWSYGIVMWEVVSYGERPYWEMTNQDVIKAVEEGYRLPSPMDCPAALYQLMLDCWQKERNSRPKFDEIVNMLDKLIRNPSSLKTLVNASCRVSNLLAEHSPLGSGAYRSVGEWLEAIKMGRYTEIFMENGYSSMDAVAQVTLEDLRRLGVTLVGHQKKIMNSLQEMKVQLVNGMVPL
Chain of DnaJ homolog subfamily A member 1 (P31689 whole entry): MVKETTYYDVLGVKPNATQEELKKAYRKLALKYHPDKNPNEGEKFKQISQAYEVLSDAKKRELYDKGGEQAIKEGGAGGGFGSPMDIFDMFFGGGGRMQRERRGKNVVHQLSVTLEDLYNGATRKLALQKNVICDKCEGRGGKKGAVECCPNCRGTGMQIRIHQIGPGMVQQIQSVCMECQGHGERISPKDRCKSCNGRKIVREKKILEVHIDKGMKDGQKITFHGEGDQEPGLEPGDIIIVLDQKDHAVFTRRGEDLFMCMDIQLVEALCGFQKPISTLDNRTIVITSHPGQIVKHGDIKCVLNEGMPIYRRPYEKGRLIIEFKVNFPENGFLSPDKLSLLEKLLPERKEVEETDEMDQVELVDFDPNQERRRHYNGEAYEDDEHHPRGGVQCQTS

The term Kd denotes the equilibrium constant for the complex coming apart. Take `CC(C)Nc1cc(-c2c[nH]c(C(=O)N[C@H](CO)c3cccc(Cl)c3)c2)c(Cl)cn1` [ULIXERTINIB]: the Kd (in test [1]; in test [2]; in test [3]; in [4]; at Ephrin type-B receptor 6; in test [5]) was > 30 µM (inactive) in each case. Further, the Kd (in test [6]; in test [7]; in [8]; in [9]; on Ephrin type-A receptor 5; in [10]) was > 30 µM (inactive) throughout. For the same compound, the Kd in test [11], in test [12] and in test [13] was > 30 µM (inactive) each time.
On to `O=C1NC(=O)/C(=C/c2ccc3nccc(-c4ccncc4)c3c2)S1` [GSK-1059615], for which the Kd (in test [1]; in test [2]; in test [3]; in [4]; at Ephrin type-B receptor 6; in test [5]) was > 30 µM (inactive) in each case. Besides, the Kd in [6] was 5.25 µM (active); in [7], 0.317 µM (active); in test [8] it was > 30 µM (inactive); in test [9], > 30 µM (inactive); at Ephrin type-A receptor 5, > 30 µM (inactive); in test [10] it was 0.402 µM (active). Further, the values for the Kd in test [11], in [12] and in test [13] were > 30 µM (inactive), > 30 µM (inactive) and 0.025 µM (active), respectively.
As for `Cc1cn(-c2cc(NC(=O)c3ccc(C)c(Nc4nccc(-c5cccnc5)n4)c3)cc(C(F)(F)F)c2)cn1` [NILOTINIB], the Kd in test [2] was > 30 µM (inactive).
As for `COc1cc(CCc2cc(NC(=O)c3ccc(N4C[C@@H](C)N[C@@H](C)C4)cc3)n[nH]2)cc(OC)c1` [AZD-4547], the Kd (in [1]; in test [2]; in [3]; in test [4]; at Ephrin type-B receptor 6; in test [5]) was > 30 µM (inactive) in each case. Further, the Kd (in test [6]; in test [7]; in [8]; in [9]; at Ephrin type-A receptor 5; in test [10]) was > 30 µM (inactive) each time. The Kd in test [11], in test [12] and in test [13] was > 30 µM (inactive) each time.
As for `C=CC(=O)N1CCC(Oc2cc3c(Nc4ccc(Cl)c(Cl)c4F)ncnc3cc2OC)CC1` [POZIOTINIB], the Kd (in [1]; in [2]; in test [3]; in [4]; at Ephrin type-B receptor 6; in test [5]) was > 30 µM (inactive) each time. Moreover, the Kd (in test [6]; in test [7]; in test [8]; in [9]; at Ephrin type-A receptor 5; in test [10]) was > 30 µM (inactive) in each case. The Kd in test [11], in [12] and in test [13] was > 30 µM (inactive) throughout.
Regarding `Cc1c(F)cc(C(=O)NC2CC2)cc1-c1ccc(C(=O)NCC(C)(C)C)cn1` [LOSMAPIMOD], the Kd was 0.027 µM (active) in test [1]; > 30 µM (inactive) in [2]; > 30 µM (inactive) in test [3]; > 30 µM (inactive) in test [4]; > 30 µM (inactive) on Ephrin type-B receptor 6; > 30 µM (inactive) in test [5]. Further, the Kd (in [6]; in test [7]; in test [8]; in [9]; on Ephrin type-A receptor 5; in test [10]) was > 30 µM (inactive) throughout. For the same compound, the Kd in test [11], in test [12] and in test [13] was > 30 µM (inactive) throughout.
On to `Nc1nc(N)c2nc(-c3cccc(O)c3)c(-c3cccc(O)c3)nc2n1` [TG100-115], for which, in [2], the Kd was > 30 µM (inactive).
As for `COc1cc(OC)c(/C=C/S(=O)(=O)Cc2ccc(OC)c(NCC(=O)O)c2)c(OC)c1` [RIGOSERTIB], the Kd (in [1]; in test [2]; in test [3]; in test [4]; at Ephrin type-B receptor 6; in [5]) was > 30 µM (inactive) throughout. Also, the Kd (in test [6]; in test [7]; in test [8]; in [9]; at Ephrin type-A receptor 5; in test [10]) was > 30 µM (inactive) in each case. The Kd in [11], in test [12] and in test [13] was > 30 µM (inactive) in each case.
In the case of `C1=C/COCc2cc(ccc2OCCN2CCCC2)Nc2nccc(n2)-c2cccc(c2)COC/1` [PACRITINIB], the Kd (in test [1]; in test [2]; in test [3]; in [4]; on Ephrin type-B receptor 6; in [5]) was > 30 µM (inactive) each time. For the same compound, the Kd in [6] is > 30 µM (inactive); in test [8] it was > 30 µM (inactive); in [9] it was > 30 µM (inactive); on Ephrin type-A receptor 5, > 30 µM (inactive); in test [10], 0.039 µM (active); in test [11] it was 0.258 µM (active). For the same compound, the Kd was 5.19 µM (active) in test [12] and 0.138 µM in [13].
On to `Cc1ccc(S(=O)(=O)Nc2nc3ccccc3nc2Nc2ccc3nsnc3c2)cc1`, for which the Kd (in test [1]; in test [2]; in test [3]; in [4]; at Ephrin type-B receptor 6; in [5]) was > 30 µM (inactive) throughout. Moreover, the Kd (in [6]; in [7]; in test [8]; in [9]; at Ephrin type-A receptor 5; in [10]) was > 30 µM (inactive) in each case. Besides, the Kd in [11], in test [12] and in test [13] was > 30 µM (inactive) in each case.
